Test system: 186277-243-T-J2-PDC complex spheroids, viability
Test: Anticancer human tumor 186277-243-T-J2-PDC patient-derived colon adenocarcinoma cell line growth inhibition [RAS]
Conditions: for IC50: curve of first compound; for viability, T/C: stronger effect = lower value; active = viability on the fitted dose curve at most 10% of control; inactive = the rest
Outline: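 Agents were tested in combination matrices in half-log decrements from a top concentration at or near clinical Cmax (10 microM if undetermined). Targets were multi-cell spheroids of tumour lines plus HUVEC and MSC stromal cells.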

[1] = second compound 0.00316 µM, first compound 0.000949 µM
[2] = second compound 0.00316 µM, first compound 0.003 µM
[3] = second compound 0.00316 µM, first compound 0.00949 µM
[4] = second compound 0.00316 µM, first compound 0.03 µM
[5] = second compound 0.00316 µM, first compound 0.0949 µM
[6] = second compound 0.00316 µM, first compound 0.3 µM
[7] = second compound 0.01 µM, first compound 0.000949 µM
[8] = second compound 0.01 µM, first compound 0.003 µM
[9] = second compound 0.01 µM, first compound 0.00949 µM
[10] = second compound 0.01 µM, first compound 0.03 µM
[11] = second compound 0.01 µM, first compound 0.0949 µM
[12] = second compound 0.01 µM, first compound 0.3 µM
[13] = second compound 0.0316 µM, first compound 0.000949 µM
[14] = second compound 0.0316 µM, first compound 0.003 µM
[15] = second compound 0.0316 µM, first compound 0.00949 µM
[16] = second compound 0.0316 µM, first compound 0.03 µM
[17] = second compound 0.0316 µM, first compound 0.0949 µM
[18] = second compound 0.0316 µM, first compound 0.3 µM
[19] = second compound 0.1 µM, first compound 0.000949 µM
[20] = second compound 0.1 µM, first compound 0.003 µM
[21] = second compound 0.1 µM, first compound 0.00949 µM
[22] = second compound 0.1 µM, first compound 0.03 µM
[23] = second compound 0.1 µM, first compound 0.0949 µM
[24] = second compound 0.1 µM, first compound 0.3 µM
[25] = second compound 0.316 µM, first compound 0.000949 µM
[26] = second compound 0.316 µM, first compound 0.003 µM
[27] = second compound 0.316 µM, first compound 0.00949 µM
[28] = second compound 0.316 µM, first compound 0.03 µM
[29] = second compound 0.316 µM, first compound 0.0949 µM
[30] = second compound 0.316 µM, first compound 0.3 µM
[31] = second compound 1 µM, first compound 0.000949 µM
[32] = second compound 1 µM, first compound 0.003 µM
[33] = second compound 1 µM, first compound 0.00949 µM
[34] = second compound 1 µM, first compound 0.03 µM
[35] = second compound 1 µM, first compound 0.0949 µM
[36] = second compound 1 µM, first compound 0.3 µM
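Note: spheroids exposed to compounds for 7 days before viability read.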

CC(=O)OC12COC1CC(O)C1(C)C(=O)C(O)C3=C(C)C(OC(=O)C(O)C(NC(=O)OC(C)(C)C)c4ccccc4)CC(O)(C(OC(=O)c4ccccc4)C21)C3(C)C (stereo unspecified) + C=CC(=O)N1CCN(c2nc(OCC3CCCN3C)nc3c(F)c(-c4nc(N)cc(C)c4C(F)(F)F)c(Cl)cc23)C(C)C1
inactive: viability, T/C (second compound 1 µM, first compound 0.0316 µM) 12%
< 31.6 nM: IC50 (second compound 0.00316 µM) | IC50 (second compound 0.01 µM) | IC50 (second compound 0.0316 µM) | IC50 (second compound 0.1 µM) | IC50 (second compound 0.316 µM) | IC50 (second compound 1 µM)
active: viability, T/C (second compound 0.00316 µM, first compound 0.0316 µM) 8.38% | viability, T/C (second compound 0.00316 µM, first compound 0.1 µM) 7.03% | viability, T/C (second compound 0.00316 µM, first compound 0.316 µM) 7.44% | viability, T/C (second compound 0.00316 µM, first compound 1 µM) 6.91% | viability, T/C (second compound 0.00316 µM, first compound 3.16 µM) 7.11% | viability, T/C (second compound 0.00316 µM, first compound 10 µM) 7.02% | viability, T/C (second compound 0.01 µM, first compound 0.0316 µM) 8.84% | viability, T/C (second compound 0.01 µM, first compound 0.1 µM) 6.99% | viability, T/C (second compound 0.01 µM, first compound 0.316 µM) 7.34% | viability, T/C (second compound 0.01 µM, first compound 1 µM) 7.25% | viability, T/C (second compound 0.01 µM, first compound 3.16 µM) 7.21% | viability, T/C (second compound 0.01 µM, first compound 10 µM) 6.02% | viability, T/C (second compound 0.0316 µM, first compound 0.0316 µM) 8.72% | viability, T/C (second compound 0.0316 µM, first compound 0.1 µM) 7.79% | viability, T/C (second compound 0.0316 µM, first compound 0.316 µM) 7.18% | viability, T/C (second compound 0.0316 µM, first compound 1 µM) 7.01% | viability, T/C (second compound 0.0316 µM, first compound 3.16 µM) 6.46% | viability, T/C (second compound 0.0316 µM, first compound 10 µM) 5.97% | viability, T/C (second compound 0.1 µM, first compound 0.0316 µM) 8.28% | viability, T/C (second compound 0.1 µM, first compound 0.1 µM) 7.95% | viability, T/C (second compound 0.1 µM, first compound 0.316 µM) 8.02% | viability, T/C (second compound 0.1 µM, first compound 1 µM) 7.09% | viability, T/C (second compound 0.1 µM, first compound 3.16 µM) 8.08% | viability, T/C (second compound 0.1 µM, first compound 10 µM) 6.87% | viability, T/C (second compound 0.316 µM, first compound 0.0316 µM) 8.75% | viability, T/C (second compound 0.316 µM, first compound 0.1 µM) 8.38% | viability, T/C (second compound 0.316 µM, first compound 0.316 µM) 10.2% | viability, T/C (second compound 0.316 µM, first compound 1 µM) 8.18% | viability, T/C (second compound 0.316 µM, first compound 3.16 µM) 8.14% | viability, T/C (second compound 0.316 µM, first compound 10 µM) 6.78% | viability, T/C (second compound 1 µM, first compound 0.1 µM) 9.42% | viability, T/C (second compound 1 µM, first compound 0.316 µM) 9.31% | viability, T/C (second compound 1 µM, first compound 1 µM) 8.34% | viability, T/C (second compound 1 µM, first compound 3.16 µM) 11.8% | viability, T/C (second compound 1 µM, first compound 10 µM) 9.17%

CC1(C)CCC(Nc2ncc(C(F)(F)F)c(-c3c[nH]c4c(P(C)(C)=O)c(C#N)ccc34)n2)CN1 (stereo unspecified) + C=CC(=O)N1CCN(c2nc(OCC3CCCN3C)nc3c(F)c(-c4nc(N)cc(C)c4C(F)(F)F)c(Cl)cc23)C(C)C1
inactive: viability, T/C [1] 94.9% | viability, T/C [2] 98.4% | viability, T/C [3] 143% | viability, T/C [4] 66.8% | viability, T/C [5] 75.5% | viability, T/C [6] 56.9% | viability, T/C [7] 109% | viability, T/C [8] 115% | viability, T/C [9] 146% | viability, T/C [10] 58.6% | viability, T/C [11] 60.2% | viability, T/C [12] 66.4% | viability, T/C [13] 101% | viability, T/C [14] 118% | viability, T/C [15] 135% | viability, T/C [16] 85.4% | viability, T/C [17] 66.7% | viability, T/C [18] 65.9% | viability, T/C [19] 96.6% | viability, T/C [20] 120% | viability, T/C [21] 120% | viability, T/C [22] 71.4% | viability, T/C [23] 69.7% | viability, T/C [24] 63.2% | viability, T/C [25] 103% | viability, T/C [26] 96% | viability, T/C [27] 98.5% | viability, T/C [28] 82.2% | viability, T/C [29] 65% | viability, T/C [30] 62.1% | viability, T/C [31] 112% | viability, T/C [32] 102% | viability, T/C [33] 114% | viability, T/C [34] 70.8% | viability, T/C [35] 64.3% | viability, T/C [36] 68.5%
> 300 nM: IC50 (second compound 0.00316 µM) | IC50 (second compound 0.01 µM) | IC50 (second compound 0.0316 µM) | IC50 (second compound 0.1 µM) | IC50 (second compound 0.316 µM) | IC50 (second compound 1 µM)

CCc1c2c(nc3ccc(O)cc13)-c1cc3c(c(=O)n1C2)COC(=O)[C@]3(O)CC + C=CC(=O)N1CCN(c2nc(OCC3CCCN3C)nc3c(F)c(-c4nc(N)cc(C)c4C(F)(F)F)c(Cl)cc23)C(C)C1
27.5 nM: IC50 (second compound 1 µM)
15.4 nM: IC50 (second compound 0.01 µM)
28.9 nM: IC50 (second compound 0.0316 µM)
18 nM: IC50 (second compound 0.00316 µM)
26.2 nM: IC50 (second compound 0.316 µM)
22.6 nM: IC50 (second compound 0.1 µM)
inactive: viability, T/C [1] 115% | viability, T/C [2] 94.9% | viability, T/C [3] 61.3% | viability, T/C [4] 40.9% | viability, T/C [5] 22.4% | viability, T/C [6] 14.9% | viability, T/C [7] 120% | viability, T/C [8] 87.5% | viability, T/C [9] 55% | viability, T/C [10] 40.1% | viability, T/C [11] 25.7% | viability, T/C [12] 14.2% | viability, T/C [13] 110% | viability, T/C [14] 95.6% | viability, T/C [15] 68.7% | viability, T/C [16] 56.6% | viability, T/C [17] 21.8% | viability, T/C [18] 15.6% | viability, T/C [19] 109% | viability, T/C [20] 98.1% | viability, T/C [21] 68.7% | viability, T/C [22] 46% | viability, T/C [23] 20.3% | viability, T/C [24] 13.7% | viability, T/C [25] 89.2% | viability, T/C [26] 91.9% | viability, T/C [27] 65.5% | viability, T/C [28] 51% | viability, T/C [29] 24.5% | viability, T/C [30] 17.4% | viability, T/C [31] 93.2% | viability, T/C [32] 76.1% | viability, T/C [33] 73% | viability, T/C [34] 47.1% | viability, T/C [35] 29% | viability, T/C [36] 17.5%

— PubChem BioAssay AID2060908 (Molecular Pharmacology Branch, DTP, NCI, 2025)
